Experimental data: article PMC9636434, “Discovery of small molecule agonists of the Relaxin Family Peptide Receptor 2” (Communications Biology, 2022)
Where “and” joins values, the source holds several entries; their conditions need not be identical. Identical values can stand only once. Like-named read-outs stand apart in the source and are kept apart here.

Experiments:
[1] = target: RXFP2 (Homo sapiens, UniProt Q8WXD0); assay: HTRF cAMP assay in HEK-RXFP2 cells (stably transfected; also primary HTS); type: cell-based; parameters: FLAG (N); expressed in transfected cells; settings: for % Eff (cAMP response): experiments (1)-(3), 100 nM INSL3 = 100%, DMSO = 0%; for EC50: HEK-RXFP2
Sequence of RXFP2 (Q8WXD0 whole entry): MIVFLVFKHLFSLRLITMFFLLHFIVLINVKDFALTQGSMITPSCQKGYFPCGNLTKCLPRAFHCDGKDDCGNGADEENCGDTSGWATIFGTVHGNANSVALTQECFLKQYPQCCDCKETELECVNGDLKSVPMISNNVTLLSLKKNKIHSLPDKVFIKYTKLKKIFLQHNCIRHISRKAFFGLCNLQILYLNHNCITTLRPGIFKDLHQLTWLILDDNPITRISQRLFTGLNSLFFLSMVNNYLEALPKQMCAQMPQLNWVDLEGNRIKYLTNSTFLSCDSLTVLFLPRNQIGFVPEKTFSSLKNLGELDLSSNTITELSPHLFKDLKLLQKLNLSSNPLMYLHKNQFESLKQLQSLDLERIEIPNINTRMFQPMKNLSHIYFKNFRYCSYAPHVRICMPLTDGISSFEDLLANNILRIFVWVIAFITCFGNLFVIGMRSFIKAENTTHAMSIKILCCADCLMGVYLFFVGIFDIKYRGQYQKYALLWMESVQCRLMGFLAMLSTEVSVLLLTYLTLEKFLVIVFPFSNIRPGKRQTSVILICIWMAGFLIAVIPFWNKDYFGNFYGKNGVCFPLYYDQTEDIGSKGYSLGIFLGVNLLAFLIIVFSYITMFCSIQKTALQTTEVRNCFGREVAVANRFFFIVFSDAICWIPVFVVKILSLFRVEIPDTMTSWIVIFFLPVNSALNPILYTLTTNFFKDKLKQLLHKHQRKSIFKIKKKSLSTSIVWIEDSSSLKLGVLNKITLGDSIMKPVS
Description: A quantitative high-throughput screening (HTS) of more than 80 K compounds of the NCATS/NIH diversity collection was performed at four concentrations in HEK293T cells stably expressing human RXFP2 to identify candidate agonists. A homogenous time resolved fluorescence (HTRF) assay was used to directly detect compound-induced cAMP accumulation, with forskolin or human recombinant INSL3 serving as positive controls. […] A confirmatory CRE-luciferase cAMP screen was used to eliminate any potential false positives due to assay detection artifacts (Supplementary Fig. 1a).
The cAMP response induced by the compounds was normalized to the cAMP response induced by 100 nM INSL3 as 100% efficacy and the cAMP response induced by DMSO vehicle as 0% efficacy. Emax and EC50 were calculated using four parameter nonlinear fit dose-response stimulation curves. […] Molecular weight (MW).
The HTRF Gs dynamic cAMP assay kit (CisBio, Bedford, MA) was used to measure intracellular cAMP accumulation in HEK293T cells (ATCC, Manassas, VA)[56]. […] The cell stock was verified mycoplasma free and authenticated by ATCC. Transient transfection was accomplished by treating cells in a 6-well plate with a mixture of 2 μg plasmid and 6 μL Lipofectamine 2000 (Invitrogen, Waltham, MA) per manufacturer’s protocol and incubating overnight. For cAMP measurement in 96-well format, HEK293T cells stably transfected with human RXFP2 (HEK-RXFP2), human RXFP1 (HEK-RXFP1), mouse Rxfp1 (HEK-Rxfp1) or transiently transfected with human RXFP1-RXFP2 chimeric receptors were seeded between 7500 and 30,000 cells per well, depending on cell line responsiveness, in serum-free DMEM medium and incubated overnight at 37 °C, 5% CO2. After 18 h, cells were treated with a titration of compound, 2 μM forskolin, or DMSO vehicle. Control wells were also treated with a titration of INSL3 (Phoenix Pharmaceuticals, Burlingame, CA) or human recombinant relaxin 2 (Peprotech, Cranbury, NJ). For the RXFP2 antagonist experiment, cells were co-treated with 0.28 μM compound or 30 nM INSL3 and a titration of the INSL3 B dimer antagonist[38],[39]. For the INSL3 allosteric modulation experiment, cells were co-treated with 0.025, 0.0025, or 0.00025 μM of compound and a titration of INSL3. Cells were incubated for 1 h at 37 °C, 5% CO2, and then kit cAMP-d2 and anti-cAMP antibody were added per manufacturer protocol. Plates were incubated for 1 h at room temperature and the signal was read on a CLARIOstar plate reader (BMG Labtech, Ortenberg, Germany) at 665 and 620 nm emission wavelengths.

[2] = target: CCKAR (Homo sapiens, UniProt P32238); assay: PRESTO-Tango β-arrestin recruitment, CCKAR; type: cell-based; settings: 10 µM compound; basal level of detection 3-fold RLU
Sequence of CCKAR (P32238 whole entry): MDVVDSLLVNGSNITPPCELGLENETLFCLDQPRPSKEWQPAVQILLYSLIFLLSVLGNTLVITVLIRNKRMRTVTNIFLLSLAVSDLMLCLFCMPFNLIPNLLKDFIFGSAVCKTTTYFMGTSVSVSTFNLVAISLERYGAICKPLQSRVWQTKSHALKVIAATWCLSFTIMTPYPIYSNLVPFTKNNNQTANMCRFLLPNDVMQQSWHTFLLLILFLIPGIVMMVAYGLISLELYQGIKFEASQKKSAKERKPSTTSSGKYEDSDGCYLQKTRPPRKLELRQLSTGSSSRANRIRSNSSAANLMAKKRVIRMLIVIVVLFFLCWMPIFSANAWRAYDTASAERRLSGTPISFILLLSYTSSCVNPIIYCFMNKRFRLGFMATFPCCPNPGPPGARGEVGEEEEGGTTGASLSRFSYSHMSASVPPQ

SMILES: O=C1Nc2ccc(-c3cc(C(F)(F)F)cc(C(F)(F)F)c3)cc2C(=O)N2CCN(C(=O)COc3ccc(OC(F)(F)F)cc3I)C[C@@H]12 [compound 6641]
- % Eff (cAMP response) ([1]; Log [M] -4.60): 104.78% and 100.31% and 87.28%
- % Eff (cAMP response) ([1]; Log [M] -5.60): 76.57% and 72.45% and 73.51%
- % Eff (cAMP response) ([1]; Log [M] -6.60): 55.58% and 48.02% and 47.8%
- % Eff (cAMP response) ([1]; Log [M] -7.60): 15.09% and 15.05% and 13.98%
- % Eff (cAMP response) ([1]; Log [M] -8.60): 1.51% and 0.43% and 1.99%
- % Eff (cAMP response) ([1]; Log [M] -9.60): -0.34% and 0.01% and 0.17%
- Emax (1)-(3) ([1]; individual experiments, % vs. 100 nM INSL3): 115% and 116.5% and 89.48%
- EC50 ([1]; individual experiments, read-out: EC50 (1)-(3)): 358 nM and 568 nM and 217 nM
- Emax (% vs. 100 nM INSL3) (AVERAGE) ([1]; mean (± SEM) of 3 independent experiments): 107% and 106.99 ± 8.77% and 106.99%
- EC50 ([1]; mean (± SEM) of 3 independent experiments, read-out: EC50 (AVERAGE)): 380 nM and < 1000 nM
- β-arrestin recruitment, CCKAR (mean ± SEM) [2]: 3.42 ± 0.15 fold RLU
